Reference: ChEMBL document CHEMBL1133223, “Mechanistic studies on prolyl-4-hydroxylase: the vitamin C requiring uncoupled oxidation” (Bioorg Med Chem Lett, 2000)
Square brackets hold non-standard residues; d marks the D form. Peptide text beside a SMILES is read from it. * marks the point of attachment. ΔPro = O=C(O)[C@@H]1C=CCN1; Cbz = O=C(OCc1ccccc1)*

How the values were obtained:
Type in all cases: ADME
[1] = Percent Vmax by incubating with prolyl-4-hydroxylase under standard assay conditions
[2] = V/K by incubating with prolyl-4-hydroxylase under standard assay conditions
[3] = Km by incubating with prolyl-4-hydroxylase under standard assay conditions

Vmax [1] | V/K [2] | Km [3] | SMILES
30% | 3.4 | 520 µM | CCOC(=O)CNC(=O)[C@@H]1CCCN1C(=O)[C@H](Cc1ccccc1)NC(=O)CNC(=O)OCc1ccccc1 (Cbz-GFPG-OEt)
95% | – | 200 µM | CCOC(=O)CNC(=O)[C@@H]1C=CCN1C(=O)[C@H](Cc1ccccc1)NC(=O)CNC(=O)OCc1ccccc1 (Cbz-GF[ΔPro]G-OEt)
100% | – | 200 µM | O=C(O)CNC(=O)[C@@H]1CCCN1C(=O)[C@@H]1CCCN1 (H-Pro-Pro-Gly-OH)
